Key:
[1] = target: T1, recombinant human CRTH2 receptor (Homo sapiens, UniProt Q9Y5Y4); assay: GTPγS binding assay; type: biochemical; conditions: +HSA; read-out: hDP2 GTPγS μM (+HSA)
T1 construct: expressed in transfected cells
T1 sequence (Q9Y5Y4 1-395): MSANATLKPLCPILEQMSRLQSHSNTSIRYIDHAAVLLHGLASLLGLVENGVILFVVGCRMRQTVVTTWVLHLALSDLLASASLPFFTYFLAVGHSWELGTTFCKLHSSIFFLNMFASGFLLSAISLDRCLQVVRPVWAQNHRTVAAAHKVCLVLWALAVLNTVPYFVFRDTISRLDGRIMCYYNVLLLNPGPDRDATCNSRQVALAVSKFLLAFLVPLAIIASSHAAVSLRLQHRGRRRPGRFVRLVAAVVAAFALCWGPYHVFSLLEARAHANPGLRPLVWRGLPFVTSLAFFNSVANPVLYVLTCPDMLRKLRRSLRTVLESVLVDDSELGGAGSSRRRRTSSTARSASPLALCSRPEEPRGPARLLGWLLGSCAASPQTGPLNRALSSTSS
Procedure, shortened: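 Membranes from CHO cells stably expressing recombinant receptor (~12.5 μg/well), incubated 60 min at 30° C with 0.05 nM [^35S]-GTPγS, 80 nM PGD2, 5 μM GDP in pH 7.4 Hepes buffer with 0.2% human serum albumin. Filter-bound radioactivity counted; specific binding = total minus binding without PGD2; IC50 from titration curves.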

[2] = target: T2, human DP1 receptor (Homo sapiens, UniProt Q13258); assay: DP1 radioligand binding assay using [3H]BWA868C; conditions: hDP1 binding
T2 construct: tissue Biological Specialty Corporation; host or cells: human platelets, membranes
T2 sequence (Q13258 1-359): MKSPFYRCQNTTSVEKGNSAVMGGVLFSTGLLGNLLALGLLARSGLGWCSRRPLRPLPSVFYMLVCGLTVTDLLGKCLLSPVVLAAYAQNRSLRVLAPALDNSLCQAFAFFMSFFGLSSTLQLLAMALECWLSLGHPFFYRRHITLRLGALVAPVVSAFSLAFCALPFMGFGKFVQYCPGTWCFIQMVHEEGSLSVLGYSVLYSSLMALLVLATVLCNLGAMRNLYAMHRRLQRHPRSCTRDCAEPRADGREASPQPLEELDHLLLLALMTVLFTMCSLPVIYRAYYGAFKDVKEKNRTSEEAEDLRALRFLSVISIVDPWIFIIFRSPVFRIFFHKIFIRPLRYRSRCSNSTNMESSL
Procedure, shortened: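 Human platelet membranes (20 μg protein/well) incubated 60 min at room temperature with 2 nM [3H]BWA868C in 50 mM Hepes, 10 mM MnCl2, 1 mM EDTA, ±0.2% human serum albumin, pH 7.4. Bound label measured after filtration; nonspecific binding defined with 10 μM BW A868C. IC50 from titration curves.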

[3] = target: T3, human DP2 receptor (Homo sapiens, UniProt Q9Y5Y4); assay: DP2/CRTH2 radioligand binding assay using [3H]PGD2; conditions: hDP2 (CRTH2) binding assay
T3 construct: expressed in transfected cells
T3 sequence (Q9Y5Y4 1-395): T1 sequence (Q9Y5Y4 1-395)
Procedure, shortened: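 HEK293 membranes with stable recombinant human DP2, incubated with 1 nM [3H]PGD2 and compound 60 min at room temperature in pH 7.4 HEPES/MnCl2/EDTA buffer, with or without 0.2% human serum albumin.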

IC50 [1] [µM]	IC50 [2] [nM]	IC50 [3] [nM]	SMILES
> 1	> 1000	< 300	C[C@H]1[C@@H](c2ccccc2)OC(=O)N1Cc1cc(Br)ccc1Oc1cc(CC(=O)O)ccc1Cl [Compound 1-29, {3-[4-Bromo-2-((4S,5R)-4-methyl-2-oxo-5-phenyl-oxazolidin-3-ylmethyl)-phenoxy]-4-chloro-phenyl}-acetic acid]
< 0.3	> 1000	< 300	O=C(O)Cc1cccc(Oc2ccc(Br)cc2CN2C(=O)O[C@H]3Cc4ccccc4[C@H]32)c1 [Compound 2-1, {3-[4-Bromo-2-((3aR,8aS)-2-oxo-8,8a-dihydro-3aH-indeno[1,2-d]oxazol-3-ylmethyl)-phenoxy]-phenyl}-acetic acid]
< 0.3	300 to 1000	< 300	C[C@@H]1[C@H](c2cc(F)cc(F)c2)OC(=O)N1Cc1cc(Br)ccc1Oc1cccc(CC(=O)O)c1 [Compound 1-51]
< 0.3	> 1000	< 300	C[C@@H]1[C@H](c2ccccc2)OC(=O)N1Cc1cc(Br)ccc1Oc1cc(CC(=O)O)cc(C(F)(F)F)c1 [Compound 1-57, {3-[4-Bromo-2-((4R,5S)-4-methyl-2-oxo-5-phenyl-oxazolidin-3-ylmethyl)-phenoxy]-5-trifluoromethyl-phenyl}-acetic acid]
< 0.3	< 300	< 300	C[C@@H]1[C@H](c2ccccc2)OC(=O)N1Cc1cc(Br)ccc1Oc1cccc(CC(=O)O)c1 [Compound 1-49, {3-[4-Bromo-2-((4R,5S)-4-methyl-2-oxo-5-phenyl-oxazolidin-3-ylmethyl)-phenoxy]-phenyl}-acetic acid]
> 1	> 1000	300 to 1000	C[C@H]1[C@@H](c2ccccc2)OC(=O)N1Cc1cc(Br)ccc1Oc1ccc(C(F)(F)F)c(CC(=O)O)c1 [Compound 1-25, {5-[4-Bromo-2-((4S,5R)-4-methyl-2-oxo-5-phenyl-oxazolidin-3-ylmethyl)-phenoxy]-2-trifluoromethyl-phenyl}-acetic acid]
0.3 to 1	> 1000	< 300	COc1ccc(CC(=O)O)cc1Oc1ccc(Br)cc1CN1C(=O)O[C@H](c2ccccc2)[C@@H]1C [Compound 1-30, {3-[4-Bromo-2-((4S,5R)-4-methyl-2-oxo-5-phenyl-oxazolidin-3-ylmethyl)-phenoxy]-4-methoxy-phenyl}-acetic acid]
< 0.3	> 1000	< 300	O=C(O)Cc1cccc(Oc2ccc(Br)cc2CN2C(=O)O[C@@H]3Cc4ccccc4[C@@H]32)c1 [Compound 2-2, {3-[4-Bromo-2-((3aS,8aR)-2-oxo-8,8a-dihydro-3aH-indeno[1,2-d]oxazol-3-ylmethyl)-phenoxy]-phenyl}-acetic acid]
< 0.3	< 300	< 300	C[C@H]1[C@@H](c2ccccc2)OC(=O)N1Cc1cc(Br)ccc1Oc1cc(Cl)cc(CC(=O)O)c1 [Compound 1-27, {3-[4-Bromo-2-((4S,5R)-4-methyl-2-oxo-5-phenyl-oxazolidin-3-ylmethyl)-phenoxy]-5-chloro-phenyl}-acetic acid]
< 0.3	< 300	< 300	C[C@H]1[C@@H](c2cc(F)cc(F)c2)OC(=O)N1Cc1cc(Br)ccc1Oc1cccc(CC(=O)O)c1 [Compound 1-17, (3-{4-Bromo-2-[(4S,5R)-5-(3,5-difluoro-phenyl)-4-methyl-2-oxo-oxazolidin-3-ylmethyl]-phenoxy}-phenyl)-acetic acid]
> 1	> 1000	< 300	C[C@@H]1[C@H](c2cc(C(F)(F)F)cc(C(F)(F)F)c2)OC(=O)N1Cc1cc(Br)ccc1Oc1cccc(CC(=O)O)c1 [Compound 1-52]

The remaining lines, values behind:

SMILES	IC50 [1] [µM]	IC50 [2] [nM]	IC50 [3] [nM]
Cn1cc(-c2ccc(Oc3cccc(CC(=O)O)c3)c(CN3CCOC3=O)c2)cn1 [Compound 1-84, {3-[4-(1-Methyl-1H-pyrazol-4-yl)-2-(2-oxo-oxazolidin-3-ylmethyl)-phenoxy]-phenyl}-acetic acid]	0.3 to 1	> 1000	300 to 1000
C[C@H]1[C@@H](c2ccccc2)OC(=O)N1Cc1cc(C(F)(F)F)ccc1Oc1cc(CC(=O)O)ccc1OCc1ccccc1 [Compound 1-33, {4-Benzyloxy-3-[2-((4S,5R)-4-methyl-2-oxo-5-phenyl-oxazolidin-3-ylmethyl)-4-trifluoromethyl-phenoxy]-phenyl}-acetic acid]	< 0.3	> 1000	< 300
COc1ccc(CC(=O)O)cc1Oc1ccc(-c2ccncc2)cc1CN1C(=O)O[C@H](c2ccccc2)[C@@H]1C [Compound 1-41, {4-Methoxy-3-[2-((4S,5R)-4-methyl-2-oxo-5-phenyl-oxazolidin-3-ylmethyl)-4-pyridin-4-yl-phenoxy]-phenyl}-acetic acid]	0.3 to 1	> 1000	< 300
O=C(O)Cc1cc(Oc2ccc(C(F)(F)F)cc2CN2CCOC2=O)ccc1-c1ccccc1 [Compound 1-13, {4-[2-(2-Oxo-oxazolidin-3-ylmethyl)-4-trifluoromethyl-phenoxy]-biphenyl-2-yl}-acetic acid]	0.3 to 1	< 300	< 300
C[C@@H]1[C@H](c2ccccc2)OC(=O)N1Cc1cc(C(F)(F)F)ccc1Oc1cc(CC(=O)O)ccc1OCc1ccccc1 [Compound 1-67, {4-Benzyloxy-3-[2-((4R,5S)-4-methyl-2-oxo-5-phenyl-oxazolidin-3-ylmethyl)-4-trifluoromethyl-phenoxy]-phenyl}-acetic acid]	0.3 to 1	> 1000	< 300
COc1ccc(CC(=O)O)cc1Oc1ccc(C(F)(F)F)cc1CN1C(=O)O[C@@H](c2ccccc2)[C@H]1C [Compound 1-61, {4-Methoxy-3-[2-((4R,5S)-4-methyl-2-oxo-5-phenyl-oxazolidin-3-ylmethyl)-4-trifluoromethyl-phenoxy]-phenyl}-acetic acid]	0.3 to 1	> 1000	< 300
COc1ccc(CC(=O)O)cc1Oc1ccc(NC(=O)c2ccc(Cl)cc2)cc1CN1CCOC1=O [Compound 1-91, {3-[4-(4-Chloro-benzoylamino)-2-(2-oxo-oxazolidin-3-ylmethyl)-phenoxy]-4-methoxy-phenyl}-acetic acid]	> 1	> 1000	< 300
COc1ccc(CC(=O)O)cc1Oc1ccc(Br)cc1CN1C(=O)O[C@@H](c2cc(C(F)(F)F)cc(C(F)(F)F)c2)[C@H]1C [Compound 1-64, (3-{2-[(4R,5S)-5-(3,5-Bis-trifluoromethyl-phenyl)-4-methyl-2-oxo-oxazolidin-3-ylmethyl]-4-bromo-phenoxy}-4-methoxy-phenyl)-acetic acid]	> 1	> 1000	300 to 1000
CC(C(=O)O)c1cccc(Oc2ccc(C(F)(F)F)cc2CN2CCOC2=O)c1 (stereo not drawn) [Compound 1-10, 2-{3-[2-(2-Oxo-oxazolidin-3-ylmethyl)-4-trifluoromethyl-phenoxy]-phenyl}-propionic acid]	> 1	> 1000	< 300
COc1ccc(CC(=O)O)cc1Oc1ccc(-c2cnn(C)c2)cc1CN1C(=O)O[C@@H](c2ccccc2)[C@H]1C [Compound 1-66, {4-Methoxy-3-[2-((4R,5S)-4-methyl-2-oxo-5-phenyl-oxazolidin-3-ylmethyl)-4-(1-methyl-1H-pyrazol-4-yl)-phenoxy]-phenyl}-acetic acid]	< 0.3	> 1000	< 300
O=C(O)Cc1cccc(Oc2ccc(Br)cc2CN2CC(c3ccc(Cl)cc3)CC2=O)c1 (stereo not drawn) [Compound 3-2, (3-{4-Bromo-2-[4-(4-chloro-phenyl)-2-oxo-pyrrolidin-1-ylmethyl]-phenoxy}-phenyl)-acetic acid]	> 1	300 to 1000	< 300
CCOc1ccc(CC(=O)O)cc1Oc1ccc(C(F)(F)F)cc1CN1C(=O)O[C@@H](c2ccccc2)[C@H]1C [Compound 1-83, {4-Ethoxy-3-[2-((4R,5S)-4-methyl-2-oxo-5-phenyl-oxazolidin-3-ylmethyl)-4-trifluoromethyl-phenoxy]-phenyl}-acetic acid]	< 0.3	> 1000	< 300

Reference: patent publication US8242145B2, “Cyclic diaryl ether compounds as antagonists of prostaglandin D2 receptors” (Panmira Pharmaceuticals, LLC, priority 2008, dated 2012)
